Strand notation (5' to 3'): a small letter for the sugar, then the base; units joined by * are phosphorothioate-linked, units joined directly phosphodiester-linked; [ ] holds rarer units or linkages, { } end groups; capitals alone tell only the bases. e = 2'-O-(2-methoxyethyl) (MOE); [5mC] = 5-methylcytosine; d = 2'-deoxy (DNA)
Experiments:
human Factor 7 mRNA [1] = assay: Dose-dependent antisense inhibition of human Factor 7 in HepB3 cells, lipofectin; assay type: cell-based; details: approximately 16 hours
Procedure: Cells were plated at a density of 4,000 cells per well and treated with lipofectin reagent with 3.125 nM, 6.25 nM, 12.5 nM, 25 nM, 50 nM, and 100 nM concentrations of antisense oligonucleotide, as indicated in Table 3. After a treatment period of approximately 16 hours, RNA was isolated from the cells and Factor 7 mRNA levels were measured by real-time RT-PCR, as described herein. Human Factor 7 primer probe set RTS 2927 (forward sequence: […], incorporated herein as SEQ ID NO: 164; reverse sequence: […], incorporated herein as SEQ ID NO: 165; probe sequence: TGGGTGGTCTCCGCGGCCX, incorporated herein as SEQ ID NO: 166) was used to measure mRNA levels. Factor 7 mRNA levels were adjusted according to total RNA content as measured by RIBOGREEN®. Results are presented as percent inhibition of Factor 7, relative to untreated control cells.
Cells were plated at a density of 4,000 cells per well and transfected using lipofectin reagent with 6.25 nM, 12.5 nM, 25.0 nM, 50.0 nM, and 100.0 nM concentrations of antisense oligonucleotide, as indicated in Table 7. After a treatment period of approximately 16 hours, RNA was isolated from the cells and Factor 7 mRNA levels were measured by real-time RT-PCR, as described herein. Human Factor 7 primer probe set RTS 2927 was used to measure mRNA levels. Factor 7 mRNA levels were adjusted according to total RNA content as measured by RIBOGREEN®. Results are presented as percent inhibition of Factor 7, relative to untreated control cells.
Cells were plated at a density of 4,000 cells per well and transfected using lipofectin reagent with 3.125 nM, 6.25 nM, 12.5 nM, 25 nM, 50 nM, and 100 nM concentrations of antisense oligonucleotide, as specified in Table 14. After a treatment period of approximately 16 hours, RNA was isolated from the cells and Factor 7 mRNA levels were measured by quantitative real-time PCR. Human Factor 7 primer probe set RTS 2927 was used to measure mRNA levels. Factor 7 mRNA levels were adjusted according to total RNA content, as measured by RIBOGREEN®. Results are presented as percent inhibition of Factor 7, relative to untreated control cells.

human Factor 7 mRNA [2] = assay: Antisense inhibition of human Factor 7 mRNA in HepB3 cells, 50 nM antisense oligonucleotide, lipofectin; assay type: cell-based; details: for % Inhibition: lipofectin, approximately 24 hours; for % Inhibition of human Factor 7 mRNA levels: gapmers targeted to nucleobases 4868 to 4899 of SEQ ID NO: 1, Table 8
Summary of the method: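 Percent inhibition of Factor 7 mRNA, relative to untreated control, comes from real-time RT-PCR with RIBOGREEN normalization, using primer probe set RTS 2927 in some runs. RNA was taken roughly 24 h after lipofectin delivery of 50 nM oligonucleotide into HepB3 cells.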

[3] = 50 nM antisense oligonucleotide, Factor 7 mRNA by real-time RT-PCR (RTS 2927), relative to untreated control
[4] = Table 1, 50 nM, relative to untreated control cells
[5] = oligonucleotides targeted to nucleobases 13760 to 13789 of SEQ ID NO: 1 (Table 10)
[6] = oligonucleotides targeted to nucleobases 11830 to 11869 of SEQ ID NO: 1 (Table 9)

## 416507 (antisense eG*eG*eT*eT*eA*d[5mC]*dT*dG*dA*dG*d[5mC]*dG*d[5mC]*dG*dG*eA*eA*eG*eA*eA) [compound 416507]
Human Factor 7 mRNA [1]; Table 7, 6.25 nM
  percent inhibition of Factor 7: 30%
Human Factor 7 mRNA [1]; Table 7, 12.5 nM
  percent inhibition of Factor 7: 53%
Human Factor 7 mRNA [1]; Table 7, 25.0 nM
  percent inhibition of Factor 7: 70%
Human Factor 7 mRNA [1]; Table 7, 50.0 nM
  percent inhibition of Factor 7: 77%
Human Factor 7 mRNA [1]; Table 7, 100.0 nM
  percent inhibition of Factor 7: 72%
Human Factor 7 mRNA [2]; [3]
  % Inhibition: 73%

## 407933 (antisense eT*eG*eA*eT*eA*dA*dT*dG*dG*dA*dT*dA*dA*dG*dA*eA*e[5mC]*e[5mC]*eA*eG) [compound 407933]
Human Factor 7 mRNA [2]; [4]
  % Inhibition: 58%

## 422178 (antisense eA*e[5mC]*e[5mC]*d[5mC]*dG*d[5mC]*d[5mC]*dG*dG*d[5mC]*dT*d[5mC]*dT*dG*d[5mC]*dT*d[5mC]*eA*eT*e[5mC]) [compound 422178]
Human Factor 7 mRNA [2]; [5]
  % Inhibition (human Factor 7 mRNA levels): 37%

## 422144 (antisense e[5mC]*e[5mC]*e[5mC]*eG*eA*dG*dT*dT*d[5mC]*dT*dG*d[5mC]*dA*dG*dG*eA*eG*e[5mC]*eG*eG) [compound 422144]
Human Factor 7 mRNA [2]
  % Inhibition of human Factor 7 mRNA levels: 58%

## 416444 (antisense eA*e[5mC]*eA*eG*eT*dT*d[5mC]*d[5mC]*dG*dG*d[5mC]*d[5mC]*d[5mC]*dT*d[5mC]*eG*eA*eA*eG*eG) [compound 416444]
Human Factor 7 mRNA [2]; [3]
  % Inhibition: 24%

## 407600 (antisense eT*eG*eA*eA*eG*d[5mC]*d[5mC]*d[5mC]*dA*dA*dG*d[5mC]*dA*dG*dA*eA*eG*eG*e[5mC]*eA) [compound 407600]
Human Factor 7 mRNA [2]; [4]
  % Inhibition: 61%

## 422102 (antisense e[5mC]*eT*eG*eA*eG*dG*dA*dG*dA*d[5mC]*dA*dA*dT*dG*dG*eT*e[5mC]*eA*eG*eG) [compound 422102]
Human Factor 7 mRNA [2]; [6]
  % Inhibition (human Factor 7 mRNA levels): 62%

## 422286 (antisense eA*eG*d[5mC]*dA*d[5mC]*dA*d[5mC]*dA*dT*dG*dG*dA*dG*dT*d[5mC]*eA*eG*e[5mC]*eA*eT) [compound 422286]
Human Factor 7 mRNA [2]; oligonucleotides targeted to nucleobases 15098 to 15122 of SEQ ID NO: 1 (Table 12)
  % Inhibition (human Factor 7 mRNA levels): 53%

## 416548 (antisense eA*eG*eG*eT*eG*dA*dA*dT*dG*dA*dA*dA*dT*dT*d[5mC]*eT*eA*e[5mC]*e[5mC]*eT) [compound 416548]
Human Factor 7 mRNA [2]; [3]
  % Inhibition: 29%

## 416526 (antisense eT*eG*eT*e[5mC]*e[5mC]*dA*d[5mC]*dA*dT*dG*dA*d[5mC]*d[5mC]*d[5mC]*d[5mC]*eA*e[5mC]*eA*eG*eG) [compound 416526]
Human Factor 7 mRNA [2]; [3]
  % Inhibition: 19%

## 416498 (antisense eG*eG*e[5mC]*e[5mC]*eA*dG*dT*dG*dG*d[5mC]*d[5mC]*dA*dT*dG*d[5mC]*eA*eT*e[5mC]*e[5mC]*e[5mC]) [compound 416498]
Human Factor 7 mRNA [2]; [3]
  % Inhibition: 5%

## 407657 (antisense eG*eG*eG*eA*e[5mC]*dT*d[5mC]*dA*dG*d[5mC]*dA*dA*dG*dA*dG*eT*eG*e[5mC]*eA*eG) [compound 407657]
Human Factor 7 mRNA [2]; [4]
  % Inhibition: 26%

## 407624 (antisense eG*eA*eG*eA*e[5mC]*d[5mC]*dA*d[5mC]*d[5mC]*d[5mC]*dA*dG*dA*dT*dG*eG*eT*eG*eT*eT) [compound 407624]
Human Factor 7 mRNA [2]; [4]
  % Inhibition: 73%

## 422244 (antisense eG*eA*dG*dG*dA*dG*dA*d[5mC]*dA*dA*dT*dG*dG*dT*d[5mC]*eA*eG*eG*eG*e[5mC]) [compound 422244]
Human Factor 7 mRNA [2]; [6]
  % Inhibition (human Factor 7 mRNA levels): 55%

## 422110 (antisense eA*e[5mC]*e[5mC]*e[5mC]*eG*d[5mC]*d[5mC]*dG*dG*d[5mC]*dT*d[5mC]*dT*dG*d[5mC]*eT*e[5mC]*eA*eT*e[5mC]) [compound 422110]
Human Factor 7 mRNA [2]; [5]
  % Inhibition (human Factor 7 mRNA levels): 53%

## 422193 (antisense eT*eG*eA*dG*d[5mC]*dG*d[5mC]*dG*dG*dA*dA*dG*dA*dA*dG*dG*dG*eA*e[5mC]*eG) [compound 422193]
Human Factor 7 mRNA [2]; Table 6, 50 nM
  % Inhibition: 6%

## 407639 (antisense eT*eT*eT*eG*e[5mC]*dA*dG*d[5mC]*d[5mC]*dA*d[5mC]*dT*d[5mC]*dG*dA*eT*eG*eT*eA*e[5mC]) [compound 407639]
Human Factor 7 mRNA [2]; [4]
  % Inhibition: 76%

## 422224 (antisense eG*eG*eA*dG*d[5mC]*d[5mC]*d[5mC]*dG*dA*dG*dT*dT*d[5mC]*dT*dG*d[5mC]*dA*eG*eG*eA) [compound 422224]
Human Factor 7 mRNA [2]
  % Inhibition of human Factor 7 mRNA levels: 62%

Reference: patent US9029337B2, “Modulation of factor 7 expression” (Isis Pharmaceuticals, Inc., priority 2007, dated 2015)
